1 molecule from patent US6069146A, “Halimide, a cytotoxic marine natural product, and derivatives thereof” (The Regents of the University of California, priority 1998, dated 2000) can be followed below.

In test [1] the test system is 2X cycled bovine brain tubulin. Put plainly: Inhibition of tubulin polymerization (2X cycled bovine brain tubulin, GTP). Format: biochemical. The source says:
Thus, the compounds of the invention have an activity similar to vinca alkaloids, but are chemically distinct from the vinca alkaloids.

Test [2] has as its system paclitaxel-resistant A2780 cell line with altered tubulin. Put plainly: Collateral sensitivity, paclitaxel-resistant A2780. Format: cell-based, human.
Test [3] deals with multi-drug resistant human colon carcinoma cells. Put plainly: Cross-resistance, multi-drug resistant colon carcinoma cells. Format: cell-based.
A further test deals with tubulin. Put plainly: Binding to tubulin. The settings on record: each molecule of halimide to one tubulin molecule. From the text: (§1) Since cancer cells generally divide more rapidly than their normal cell counterpart, cancer cells generally are more susceptible than the normal cells to mitotic inhibitors such as halimide.
A further test has as its system carcinoma cells. The experiment in a line: Cell cycle arrest of carcinoma cells. Format: cell-based. The settings on record: 5 μM halimide. The source says: As used herein, the term "premitotic stage," when used in reference to cells, means that the cells have not attained the anaphase stage of mitosis and, therefore, have not yet begun to divide. […] Thus, the invention provides a method of reducing or inhibiting the ability of the cells to proceed through mitosis and, therefore, proliferate, by contacting the cells with a compound of the invention.

Test [4] has as its system human ovarian carcinoma cell line A2780. Put plainly: MTS cytotoxicity assay, A2780. Format: cell-based. The following applies: read-out: IC50, inhibition of cell proliferation. As to the method:
(§2) The cytotoxicity of halimide was assessed in vitro against the human colon carcinoma cell line HCT116 and the human ovarian carcinoma cell line A2780 by MTS assay (Ribs et al., Mol. Biol. Cell 3:184a (1992), which is incorporated herein by reference). Cells were plated at 4,000 cells/well in 96 well microliter plates and, after 24 hours, halimide (dissolved in DMSO) was added and serially diluted. The cells were incubated with the compound at 37° C. for 72 hours, then the tetrazolium dye MTS was added to a final concentration of 333 μg/ml and the electron coupling agent phenazine methosulfate was added to a final concentration of 25 μM. A dehydrogenase enzyme in live cells reduces the MTS to a form that absorbs light at […], which can be quantitated spectrophotometrically.
(§3) Assay results are expressed as an IC50, which is the drug concentration required to inhibit cell proliferation by 50% compared to growth of untreated control cells.
For orientation: Tetrazolium dyes change colour on reduction, which living cells bring about.

Test [5] concerns P388 mouse leukemia cells. The experiment in a line: In vivo P388 murine leukemia model, survival. The method, then: The efficacy of halimide was determined in vivo in a mouse P388 model. 1×10^6 P388 mouse leukemia cells were implanted in the intraperitoneal cavity of BALB/cX DBA/2 F1 (CDF1) or C57/BL6XDBA/2 F1 (BDF1) mice (Rose et al., Cancer Res. 43:1504-1510 (1983), which is incorporated herein by reference). Halimide was dissolved in ethanol and diluted with water to a concentration of 2.7 mg/ml. Halimide was injected intraperitoneally or intravenously beginning on the first day after tumor implantation and every day thereafter for five treatments. Increases in life span were reflected by the median survival time of treated (T) versus control (C) groups; T/C was calculated. For the P388 tumor model, a T/C […] 125% is considered to be a significant increase in survival. An optimal dose of 27 mg/kg/injection, ip, produced a T/C of 153%.

For test [6], the system named is human colon carcinoma cell line HCT116. The experiment in a line: MTS cytotoxicity assay, HCT116. Format: cell-based. The following applies: HCT-116, HCT116, 72 hours, read-out: IC50, inhibition of cell proliferation. The method, then: as §2, §3
A further test relates to Bcl-2. Put plainly: Bcl-2 phosphorylation. Format: cell-based.
For test [7], the system named is dividing cells (mitotic spindle). The experiment in a line: Mitotic spindle / cell division in dividing cells. Format: cell-based. The settings on record: exposure of dividing cells.
Excerpt: as §1

SMILES strings stand for the structures. Like-named read-outs stand apart in the source and are kept apart here.

Regarding `C=CC(C)(C)c1nc[nH]c1/C=C1\NC(=O)C(Cc2ccccc2)NC1=O` (stereo not shown) [halimide], in test [1], the “inhibition of tubulin polymerization (in words)” value is reported as “inhibited tubulin polymerization”. Moreover, the “inhibition of tubulin polymerization” value in test [1] (20 μM halimide, in the presence of GTP) amounted to 55%. Besides, the “collateral sensitivity (in words)” value in test [2] is given as “collaterally sensitive”. For the same molecule, in test [3], the “resistance of multi-drug resistant cells (in words)” value is given as “not resistant”. In addition, the “binding to tubulin (in words)” value in the test on tubulin is reported as “bound tightly to one tubulin molecule”. The “cell cycle arrest (in words)” value in the test with carcinoma cells is “arrested the cells at or near the G2/M boundary of the cell cycle”. Further, the IC50 in test [4] (A2780, 72 hours) is 820 nM; in test [4] (Homo sapiens, A2780, 72 h) it was 800 nM; in test [6], 1000 nM. The “survival of leukemia bearing mice (in words)” value in test [5] (P388 model) is given as “significantly prolongs the survival of leukemia bearing mice”. The “increase in life span” value in test [5] (intraperitoneal injected P388 murine leukemia model) is recorded as 53%. The optimal dose in test [5] (ip, P388 model) amounted to 27 mg/kg/injection. Also, the “T/C (median survival time of treated versus control)” value in test [5] (optimal dose 27 mg/kg/injection, ip, daily for five treatments from first day after implantation) amounted to 153%. In addition, the “Bcl-2 hyperphosphorylation (in words)” value with Bcl-2 is given as “can hyperphosphorylate Bcl-2”. The “block of the cell in a premitotic stage (in words)” value in test [7] is reported as “blocked the cell in a premitotic stage within a few minutes; the cells did not divide”. The “effect on mitotic spindle (in words)” value in [7] is “disappearance of the mitotic spindle”.
